Data reported in patent US11083709B2, “Compounds, compositions, and methods of increasing CFTR activity” (Proteostasis Therapeutics, Inc., priority 2015, dated 2021).

How the values were obtained:
ΔF508-CFTR [1] = biological target: T1, ΔF508-CFTR (Homo sapiens, UniProt P13569, DEL508-508); assay: hBE equivalent current (Ieq) assay, primary lung epithelial cells homozygous for ΔF508; format: cell-based; details: compound at 10 uM and VX-809 at 1 uM, relative to VX-809 (1 uM); 24 h treatment
T1 construct: primary lung epithelial cells (hBEs) homozygous for the Cystic Fibrosis-causing ΔF508 mutation; endogenous in cells; host or cells: primary lung epithelial cells (hBEs) homozygous for ΔF508
T1 sequence (P13569 with tags, fused parts or gaps DEL508-508): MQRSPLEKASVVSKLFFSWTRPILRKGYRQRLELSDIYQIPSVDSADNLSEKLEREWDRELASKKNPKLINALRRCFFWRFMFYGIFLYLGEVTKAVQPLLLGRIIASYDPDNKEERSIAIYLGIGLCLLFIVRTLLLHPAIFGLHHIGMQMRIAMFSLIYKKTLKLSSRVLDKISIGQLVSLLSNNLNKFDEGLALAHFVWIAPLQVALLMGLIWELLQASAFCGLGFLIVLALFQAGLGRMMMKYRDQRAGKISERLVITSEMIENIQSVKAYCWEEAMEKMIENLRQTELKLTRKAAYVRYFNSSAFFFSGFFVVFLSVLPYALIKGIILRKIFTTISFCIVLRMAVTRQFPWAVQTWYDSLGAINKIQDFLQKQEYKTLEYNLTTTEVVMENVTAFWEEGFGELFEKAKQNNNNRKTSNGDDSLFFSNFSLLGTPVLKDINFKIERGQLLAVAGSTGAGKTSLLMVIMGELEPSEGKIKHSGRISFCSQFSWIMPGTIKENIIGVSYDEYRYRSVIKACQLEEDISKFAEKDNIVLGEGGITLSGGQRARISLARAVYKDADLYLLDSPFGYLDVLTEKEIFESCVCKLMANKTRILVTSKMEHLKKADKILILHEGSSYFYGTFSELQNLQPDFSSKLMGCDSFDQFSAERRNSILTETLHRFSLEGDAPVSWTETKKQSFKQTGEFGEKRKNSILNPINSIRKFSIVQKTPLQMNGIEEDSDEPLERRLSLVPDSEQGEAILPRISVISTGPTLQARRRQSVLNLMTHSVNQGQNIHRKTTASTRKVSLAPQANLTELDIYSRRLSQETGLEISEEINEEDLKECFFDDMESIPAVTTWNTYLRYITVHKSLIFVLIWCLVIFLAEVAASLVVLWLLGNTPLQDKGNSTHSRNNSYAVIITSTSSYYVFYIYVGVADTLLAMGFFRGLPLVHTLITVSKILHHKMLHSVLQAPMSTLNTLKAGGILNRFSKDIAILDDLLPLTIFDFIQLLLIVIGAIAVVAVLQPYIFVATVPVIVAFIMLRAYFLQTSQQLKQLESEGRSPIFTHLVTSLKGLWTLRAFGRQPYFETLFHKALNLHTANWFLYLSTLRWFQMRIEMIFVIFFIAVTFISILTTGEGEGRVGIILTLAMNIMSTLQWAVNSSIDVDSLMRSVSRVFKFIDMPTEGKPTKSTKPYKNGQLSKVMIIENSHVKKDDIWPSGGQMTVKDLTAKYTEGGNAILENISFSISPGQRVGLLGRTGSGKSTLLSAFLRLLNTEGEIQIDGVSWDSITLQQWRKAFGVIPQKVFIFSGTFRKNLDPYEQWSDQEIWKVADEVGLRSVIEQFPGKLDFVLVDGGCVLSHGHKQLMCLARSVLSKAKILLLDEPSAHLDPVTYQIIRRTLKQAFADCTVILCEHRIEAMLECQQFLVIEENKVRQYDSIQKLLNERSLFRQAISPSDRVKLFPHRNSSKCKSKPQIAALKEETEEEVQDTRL
Procedure: Primary lung epithelial cells homozygous for the Cystic Fibrosis-causing ΔF508 mutation were differentiated for a minimum of 4 weeks in an air-liquid interface on Costar 24 well HTS filter plates prior to the equivalent current (Ieq) measurements. Cells were apically mucus-washed for 30 minutes 24h prior to treatment with compounds. The basolateral media was removed and replaced with media containing the compound of interest diluted to its final concentration from DMSO stocks. Treated cells were incubated at 37° C. and 5% CO2 for 24 hours. At the end of the treatment period, the media was changed to the Ieq experimental solution for 30 minutes before the experiment and plates are maintained in a CO2-free incubator during this period. The plates containing the cells were then placed in pre-warmed heating blocks at 36° C.±0.5 for 15 minutes before measurements are taken. The transepithelial voltage (VT) and conductance (GT) were measured using a custom 24 channel current clamp (TECC-24) with 24 well electrode manifold. The Ieq assay measurements were made following additions with standardized time periods: • 1. The baseline VT and GT values were measured for approximately 20 minutes. • 2. Benzamil was added to block ENaC for 15 minutes. • 3. Forskolin plus VX-770 (ivacaftor) were added to maximally activate ΔF508-CFTR for 27 minutes. • 4. Bumetanide was added to inhibit the NaK2Cl cotransporter and shut-off secretion of chloride.
The activity data captured was the area under the curve (AUC) for the traces of the equivalent chloride current. The AUC was collected from the time of the forskolin/VX-770 addition until the inhibition by bumetanide addition. Correction in response to compound treatment was scored as the increase in the AUC for compound-treated samples over that of vehicle-treated samples.
The results are shown below in Table 2. ++ indicates activity ≥25% run at 10 uM of VX-809 at 1 uM, + indicates activity 10 to <25% run at 10 uM of VX-809 at 1 uM, ** indicates activity ≥200% of VX-809 (1 uM) with compound at 10 uM and VX-809 at 1 uM; * indicates activity 100-200% of VX-809 (1 uM) with compound at 10 uM and VX-809 at 1 uM. ^## indicates activity ≥200% of VX-809 (3 uM) with compound at 10 uM and VX-809 at 3 uM; ^# indicates activity 100-200% of VX-809 (3 uM) with compound at 10 uM and VX-809 at 3 uM.

ΔF508-CFTR [2] = biological target: T1, ΔF508-CFTR; assay: Ussing measurements, hBEs homozygous for ΔF508; format: cell-based; details: compound at 10 uM and VX-809 at 3 uM, relative to VX-809 (3 uM); 24 h treatment
Procedure: As discussed above, Ussing measurements can be used to measure CFTR activity. In this example, primary lung epithelial cells (hBEs) homozygous for the Cystic Fibrosis-causing ΔF508 mutation were differentiated for a minimum of 4 weeks in an air-liquid interface on SnapWell filter plates prior to the Ussing measurements. Cells were apically mucus-washed for 30 minutes prior to treatment with compounds. The basolateral media was removed and replaced with media containing the compound of interest diluted to its final concentration from DMSO stocks. Treated cells were incubated at 37° C. and 5% CO2 for 24 hours. […] The short-circuit current was measured in voltage clamp-mode (Vhold=0 mV), and the entire assay was conducted at a temperature of 36° C.-36.5° C. Once the voltages stabilized, the chambers were clamped, and data was recorded by pulse readings every 5 seconds. Following baseline current stabilization, the following additions were applied and the changes in current and resistance of the cells was monitored: • 1. […]
The inhibitable current (that current that is blocked by CFTRinh-172) is measured as the specific activity of the ΔF508-CFTR channel, and increases in response to compound in this activity over that observed in vehicle-treated samples are identified as the correction of ΔF508-CFTR function imparted by the compound tested. […]

[3] = biological target: T2, CFTR in G542X/F508del HBEs (Homo sapiens, UniProt P13569, DEL508-508); assay: Ussing measurements, G542X/F508del HBEs; format: cell-based; details: genotype G542X/F508del
T2 construct: endogenous in cells; host or cells: primary lung epithelial cells (hBEs), genotype G542X/F508del
T2 sequence (P13569 with tags, fused parts or gaps DEL508-508): as above
Procedure: As discussed above, Ussing measurements were used to measure CFTR activity. In this method, primary lung epithelial cells (hBEs) with a Cystic fibrosis causing class I mutation were differentiated for a minimum of 4 weeks in an air-liquid interface on SnapWell™ filter plates prior to the Ussing measurements. Cells were apically mucus-washed for 30 minutes prior to treatment with compounds. The basolateral media was removed and replaced with media containing the compound of interest diluted to its final concentration from DMSO or aqueous stocks. Treated cells were incubated at 37° C. and 5% CO2 for 24 hours. […] The short-circuit current was measured in voltage clamp-mode (Vhold=0 mV), and the entire assay was conducted at a temperature of 36° C.-36.5° C. Once the voltages stabilized, the chambers were clamped, and data were recorded by pulse readings every 5 seconds. Following baseline current stabilization, the following additions were applied and the changes in current and resistance of the cells were monitored: • 1. […]
The forskolin-sensitive current and inhibitable current (that potentiated current that was blocked by CFTRinh-172) were measured as the specific activity of the ΔF508-CFTR channel, and increase in response to compound in this activity over that observed in vehicle-treated samples were identified as the correction of ΔF508-CFTR function imparted by the compound tested. […]

[4] = test system: CFTR, genotype G542X/G542X; assay: CFTR activity by mutation type, G542X/G542X (Table 7); format: cell-based, human

Q: For `C[C@@H](O)c1nnc([C@H]2C[C@H](NC(=O)c3cc(-c4ccccc4)no3)C2)o1` [Example 6, N-(trans-3-(5-((R)-1-hydroxyethyl)-1,3,4-oxadiazol-2-yl)cyclobutyl)-3-phenylisoxazole-5-carboxamide], which “leq: activity of compound with VX-809, % of VX-809 (AUC of equivalent chloride current)” value (ΔF508-CFTR [1]) is on record?
A: * (* indicates activity 100-200% of VX-809 (1 uM) with compound at 10 uM and VX-809 at 1 uM)

Q: What about the “Ussing: activity of compound with VX-809, % of VX-809” value (ΔF508-CFTR [2]) of the same molecule?
A: ## (## indicates activity ≥200% of VX-809 (3 uM) with compound at 10 uM and VX-809 at 3 uM)

Q: And the “Combination with ivacaftor and lumacaftor, activity” value ([3]; compound A 10uM + ivacaftor 1uM + lumacaftor 3 uM, relative activity of 100% = ivacaftor and lumacaftor)?
A: ++++ (++++ indicates activity at 10uM of >150% of the indicated relative activity treatment)

Q: What about the “Stand Alone activity” value ([3]; compound A 10uM, relative activity of 100% = ivacaftor (1uM) and lumacaftor (3 uM)) of the same molecule?
A: + (+ indicates activity at 10uM of 15% to <50% of the indicated relative activity treatment)

Q: What about the “Combination with NB124, activity” value ([4]; compound A 10uM + NB124 250 ug/ml, relative activity of 100% = NB124) of the same molecule?
A: ++++ (++++ indicates activity at 10uM of >150% of the indicated relative activity treatment)

Q: And the “Stand Alone activity” value ([4]; compound A 10uM, relative activity of 100% = NB124 (250 ug/ml))?
A: ++ (++ indicates activity at 10uM of 50% to <100% of the indicated relative activity treatment)
